Experiments:
Assay type in all cases: in vivo
[1] = system: Diamondback Moth (Plutella xylostella); assay: Diamondback moth control test (leaf piece dipping treatment); settings: 120 h, cabbage leaf piece dipped, third instar, five days after the treatment, 25° C., read-out: insect mortality rate
Description: (§1) The insect mortality rate and the feeding damage prevention effect shown in the Biological Test Examples were calculated based on the following expression.
Biological Test Example 3: Diamondback Moth (Plutella xylostella) Control Test (Leaf Piece Dipping Treatment)
(§2) A cabbage leaf was cut into a piece having a diameter of 5.0 cm, and this cabbage leaf piece was immersed in 20 mL of a diluted solution of the test compound diluted to 200 ppm, and air-dried. After air-drying, the cabbage leaf piece was placed in a plastic cup, 10 third instar diamondback moth nymphs were released thereinto, the cup was covered with a lid, and the nymphs were reared in a constant temperature chamber at 25° C.

[2] = system: Tobacco Cutworm (Spodoptera litura); assay: Tobacco cutworm control test (leaf piece dipping treatment); settings: 120 h, cabbage leaf piece dipped, second instar larvae, five days after the treatment, 25° C., read-out: insect mortality rate
Description: as §1
Biological Test Example 5: Tobacco Cutworm (Spodoptera litura) Control Test (Leaf Piece Dipping Treatment)
as §2, with “5 second” for “10 third”, “tobacco cutworm larvae” for “diamondback moth nymphs”, “larvae” for “nymphs”

[3] = system: Cotton Aphid (Aphis gossypii); assay: Cotton aphid control test (leaf piece application treatment); settings: 120 h, sprayed on cucumber leaf piece, nymphs, five days after the treatment, 25° C., read-out: insect mortality rate
Description: as §1
Biological Test Example 1: Cotton Aphid (Aphis gossypii) Control Test (Leaf Piece Application Treatment)
A cucumber leaf was cut into a piece having a diameter of 3.5 cm and placed on absorbent cotton moistened with water. Two adult cotton aphids were released thereon, and allowed to lay nymphs for 24 hours, and then the adults were removed. 2 mL of a diluted solution of the test compound diluted to 200 ppm was applied onto the resulting cucumber leaf by using an spray tower. The cucumber leaf was air-dried and then placed in a plastic cup together with the absorbent cotton, the cup was covered with a lid, and the nymphs were reared in a constant temperature chamber at 25° C.

Row | SMILES | mortality at 200 ppm [1] [%] | mortality at 200 ppm [2] [%] | mortality at 200 ppm [3] [%]
1 | CN(C)S(=O)(=O)c1cc(-c2ccc(OC(F)(F)F)cc2)cnc1-c1noc(=O)n1-c1ccc(C(F)(F)F)cn1 [Compound 195, N,N-dimethyl-2-(5-oxo-4-(5-(trifluoromethyl)pyridin-2-yl)-4,5-dihydro-1,2,4-oxadiazol-3-yl)-5-(4-(trifluoromethoxy)phenyl)pyridine-3-sulfonamide] | ≥ 80 | ≥ 80 | –
2 | CCS(=O)(=O)c1cc(-c2ccc(F)cc2)cnc1-c1noc(=O)n1-c1ccc(C(F)(F)F)cn1 [Compound 2, 3-(3-(ethylsulfonyl)-5-(4-fluorophenyl)pyridin-2-yl)-4-(5-(trifluoromethyl)pyridin-2-yl)-1,2,4-oxadiazol-5(4H)-one] | ≥ 80 | ≥ 80 | ≥ 80
3 | CCS(=O)(=O)c1cc(-c2ccc(OC(F)(F)F)cc2)cnc1-c1noc(=O)n1-c1ccc(C(F)(F)F)cn1 [Compound 4, 3-(3-(ethylsulfonyl)-5-(4-(trifluoromethoxy)phenyl)pyridin-2-yl)-4-(5-(trifluoromethyl)pyridin-2-yl)-1,2,4-oxadiazol-5(4H)-one] | ≥ 80 | ≥ 80 | ≥ 80
4 | CCS(=O)(=O)c1cc(-c2ccc(F)cc2)cnc1C1=NOCN1c1ccc(C(F)(F)F)cn1 [Compound 27, 3-(3-(ethylsulfonyl)-5-(4-fluorophenyl)pyridin-2-yl)-4-(5-(trifluoromethyl)pyridin-2-yl)-4,5-dihydro-1,2,4-oxadiazole] | ≥ 80 | ≥ 80 | –
5 | CCS(=O)(=O)c1cc(-c2ccc(F)cc2)cnc1-c1noc(=S)n1-c1ccc(C(F)(F)F)cn1 [Compound 18, 3-(3-(ethylsulfonyl)-5-(4-fluorophenyl)pyridin-2-yl)-4-(5-(trifluoromethyl)pyridin-2-yl)-1,2,4-oxadiazol-5(4H)-thione] | ≥ 80 | ≥ 80 | ≥ 80
6 | CCS(=O)(=O)c1cc(-c2ccc(F)cc2)cnc1C1=NOCCN1c1ccc(C(F)(F)F)cn1 [Compound 29, 3-(3-(ethylsulfonyl)-5-(4-fluorophenyl)pyridin-2-yl)-4-(5-(trifluoromethyl)pyridin-2-yl)-5,6-dihydro-4H-1,2,4-oxadiazine] | ≥ 80 | ≥ 80 | ≥ 80
7 | CCS(=O)(=O)c1cc(-c2ccc(F)cc2)cnc1C1=NC(=COC)C(=O)N1c1ccc(C(F)(F)F)cn1 [Compound 34] | ≥ 80 | – | –

Reference: patent US20250185657A1, “PEST CONTROLLING AGENT” (priority 2022, published 2025)
